± gives the standard deviation of the averaged measurements.
What was measured:
HS-Sch-2 [1] = assay: % inhibition of CellTiter-Glo viability at highest tested concentration (72 h), relative to DMSO and benzethonium chloride controls; higher = more inhibition
In short: (§1)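 MPNST cell lines and primary human Schwann cells were seeded at 750–1000 cells per well into 384-well plates preprinted with each compound at five concentrations in 10-fold steps, then incubated 72 h at 37 °C, 5% CO2. CellTiter-Glo ATP luminescence gave viability, scaled between vehicle and positive-control wells, with duplicates averaged where present. Curves were fitted with a four-parameter logistic model. Percent inhibition refers to the top concentration, while drug sensitivity score and relative IC50, censored at the top concentration, come from these fits.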

S1507-2 [2] = assay: as above
In short: as §1

ST8814 [3] = assay: as above
In short: as §1

YST-1 [4] = assay: as above
In short: as §1

STS26T [5] = assay: as above
In short: as §1

HS-PSS [6] = assay: as above
In short: as §1

[7] = test system: HSC1 (primary human Schwann cells); assay: as above
In short: as §1

[8] = test system: HSC2 (primary human Schwann cells); assay: as above
In short: as §1

S462 [9] = assay: as above
In short: as §1

HS-Sch-2 [10] = assay: drug sensitivity score (DSS, CellTiter-Glo viability, 72 h) (DSS (dimensionless)); higher = more sensitive; extreme values may be limits of the assay
In short: as §1

S1507-2 [11] = assay: as above
In short: as §1

ST8814 [12] = assay: as above
In short: as §1

YST-1 [13] = assay: as above
In short: as §1

STS26T [14] = assay: as above
In short: as §1

HS-PSS [15] = assay: as above
In short: as §1

[16] = test system: HSC1 (primary human Schwann cells); assay: as above
In short: as §1

[17] = test system: HSC2 (primary human Schwann cells); assay: as above
In short: as §1

S462 [18] = assay: as above
In short: as §1

S1507-2 [19] = assay: drug sensitivity score (DSS, CellTox-Green cytotoxicity, 72 h) (DSS (dimensionless)); higher = more cytotoxic; extreme values may be limits of the assay
In short: (§2)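 For 72 h at 37 °C, MPNST cell lines and primary human Schwann cells were exposed in 384-well plates to five 10-fold compound dilutions. CellTox-Green, added before seeding at a final 1:1000 dilution, gave fluorescence from DNA released by disrupted cells. Signals were scaled to vehicle and positive-control wells, cultures failing plate quality control were left out, and four-parameter logistic fits were applied. Relative IC50 and drug sensitivity score were derived from the fits, with IC50 censored at the top concentration.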

ST8814 [20] = assay: as above
In short: as §2

STS26T [21] = assay: as above
In short: as §2

HS-PSS [22] = assay: as above
In short: as §2

[23] = test system: HSC1 (primary human Schwann cells); assay: as above
In short: as §2

[24] = test system: HSC2 (primary human Schwann cells); assay: as above
In short: as §2

Compound | % inhibition (HS-Sch-2 [1]) [%] | % inhibition (S1507-2 [2]) [%] | % inhibition (ST8814 [3]) [%] | % inhibition (YST-1 [4]) [%] | % inhibition (STS26T [5]) [%] | % inhibition (HS-PSS [6]) [%] | % inhibition [7] [%] | % inhibition [8] [%] | % inhibition (S462 [9]) [%] | drug sensitivity score (HS-Sch-2 [10]) | drug sensitivity score (S1507-2 [11]) | drug sensitivity score (ST8814 [12]) | drug sensitivity score (YST-1 [13]) | drug sensitivity score (STS26T [14]) | drug sensitivity score (HS-PSS [15]) | drug sensitivity score [16] | drug sensitivity score [17] | drug sensitivity score (S462 [18]) | drug sensitivity score (S1507-2 [19]) | drug sensitivity score (ST8814 [20]) | drug sensitivity score (STS26T [21]) | drug sensitivity score (HS-PSS [22]) | drug sensitivity score [23] | drug sensitivity score [24]
O=C(Nc1ccncc1)C(=O)c1cn(Cc2ccc(Cl)cc2)c2ccccc12 [Indibulin] (max concentration tested 10000 nM) | 83.6 | 80.5 ± 4.1 | 74.8 | 66.2 | 93 | 24.1 | 67.6 | 78.1 | 93.04 ± 0.44 | 10.5 | 15 ± 3.3 | 14.4 | 10.2 | 20.1 | 2.56 | 11.2 | 10.5 | 16.5 ± 0.54 | 10.8 ± 3.9 | 12.6 | 21.5 | 0 | 5.82 | 7.54
Cn1cnc(-c2cc3nccc(Oc4ccc(NC(=S)NC(=O)Cc5ccccc5)cc4F)c3s2)c1 [MGCD-265] (max concentration tested 10000 nM) | 29.8 | 40 ± 2.4 | 29.8 | 16.1 | 11.4 | 23.4 | 11 | 21.3 | 40.6 ± 5.4 | 2.2 | 4.92 ± 1.6 | 3.47 | 0.19 | 0 | 2.02 | 0.016 | 0.731 | 2.93 ± 0.53 | 3.76 ± 5.3 | 0.0251 | 0 | 0 | 0 | 0.0906
Nc1nc(Cl)nc2c1ncn2[C@H]1C[C@H](O)[C@@H](CO)O1 [Cladribine] (max concentration tested 1000 nM) | 67.9 | 9.03 ± 3 | 21.3 | 54.4 | 52.5 | 38.4 | 61.2 | 71.9 | 24.7 ± 8.6 | 3.37 | 0.0035 ± 0.005 | 0.423 | 2.87 | 3.75 | 1.59 | 5.81 | 6.3 | 0.676 ± 0.56 | 4.43 ± 6.3 | 0.837 | 0.902 | 0.65 | 4.05 | 5.38
CNC(=O)c1cc(Oc2ccc(NC(=O)Nc3ccc(Cl)c(C(F)(F)F)c3)c(F)c2)ccn1 [Regorafenib] (max concentration tested 10000 nM) | 84.1 | 33.7 ± 17 | 74.2 | 73 | 49.9 | 43 | 73.8 | 78.6 | 80.9 ± 5.1 | 4.17 | 2.21 ± 1.2 | 7.57 | 6.49 | 4.35 | 1.9 | 4.61 | 6.19 | 7.19 ± 0.46 | 0 | 1.04 | 0.529 | 0 | 0 | 0
O=S(=O)(c1cccc2cnccc12)N1CCCNCC1 [Fasudil] (max concentration tested 50000 nM) | 71.5 | 30.5 ± 1.5 | 22.3 | 51 | 58.9 | 45.6 | 27.6 | 31.8 | 70.6 ± 9.4 | 3.75 | 1.02 ± 0.16 | 0.609 | 2.59 | 2.86 | 1.83 | 1.41 | 1.36 | 3.84 ± 0.63 | 0 | 0 | 0.899 | 0.2 | 0.888 | 0
CC[C@]1(O)C[C@H]2CN(CCc3c([nH]c4ccccc34)[C@@](C(=O)OC)(c3cc4c(cc3OC)N(C=O)[C@H]3[C@@](O)(C(=O)OC)[C@H](OC(C)=O)[C@]5(CC)C=CCN6CC[C@]43[C@@H]65)C2)C1 [Vincristine] (max concentration tested 1000 nM) | 94 | 79.8 ± 1.9 | 90.3 | 81.9 | 94.5 | 67.8 | 75.5 | 90.7 | 95.45 ± 0.25 | 30.5 | 21.1 ± 0.68 | 23.6 | 26.7 | 32.4 | 17 | 17.9 | 20.9 | 28.88 ± 0.23 | 13 ± 3 | 24.3 | 36 | 0.55 | 8.67 | 12.1
CCCCC(=O)OCC(=O)[C@]1(O)Cc2c(O)c3c(c(O)c2[C@@H](O[C@H]2C[C@H](NC(=O)C(F)(F)F)[C@H](O)[C@H](C)O2)C1)C(=O)c1c(OC)cccc1C3=O [Valrubicin] (max concentration tested 5000 nM) | 101 | 92.5 ± 2.8 | 97.2 | 100 | 97.7 | 97.5 | 95.1 | 98.5 | 94.14 ± 0.67 | 14.3 | 10.19 ± 0.1 | 13.6 | 19.3 | 13.5 | 11.7 | 14 | 14.1 | 14.22 ± 0.059 | 0.125 ± 0.18 | 0 | 0 | 0 | 0 | 0
Cn1cc(CNCC2CCN(c3ncc(C(=O)NO)cn3)CC2)c2ccccc21 [Quisinostat] (max concentration tested 1000 nM) | 98.6 | 102.2 ± 0.95 | 102 | 99 | 99.4 | 93.3 | 95.9 | 95.7 | 103.4 ± 0.44 | 15.7 | 20.8 ± 1.1 | 21 | 24.2 | 15.6 | 14.7 | 16 | 13.9 | 20.6 ± 0.34 | 17.2 ± 0.8 | 13.8 | 9 | 6.33 | 7.77 | 7.35
Nc1ncnc2c1c(COc1cccc(Cl)c1)nn2C1CCOCC1 (max concentration tested 10000 nM) | 12.5 | 9.42 ± 7.2 | 5.84 | 9.51 | 18.3 | 7.3 | 11.5 | -5.42 | -3.41 ± 5.9 | 0.64 | 0.0549 ± 0.078 | 0 | 0 | 0.587 | 0 | 0.203 | 0 | 0 | 0.494 ± 0.64 | 0 | 0 | 0 | 0 | 0
Nc1ncn([C@H]2C[C@H](O)[C@@H](CO)O2)c(=O)n1 [Decitabine] (max concentration tested 10000 nM) | 27.8 | 16.3 ± 5.8 | 18.8 | 4.17 | 16.2 | 4.62 | 20.3 | 27.7 | 37.4 ± 5.4 | 2.19 | 0.377 ± 0.53 | 1.82 | 0 | 0.745 | 0 | 3.33 | 1.61 | 4.99 ± 0.29 | 0.342 ± 0.48 | 0 | 0 | 0 | 0 | 0
C[C@]1(O)C[C@@H](c2nc(-c3ccc4ccc(-c5ccccc5)nc4c3)c3c(N)nccn32)C1 [Linsitinib] (max concentration tested 10000 nM) | 25.6 | 24.6 ± 0.99 | 11.1 | 82.4 | 13 | -2.81 | 27 | 11.7 | 30.7 ± 0.84 | 2.13 | 5.34 ± 1.7 | 0 | 11.6 | 0.527 | 0 | 5.89 | 0 | 5.33 ± 1.5 | 0.228 ± 0.32 | 0 | 0 | 0 | 0 | 0
O=C(O)c1ccc(-c2c[nH]c3ncc(-c4ccccc4)cc23)cc1C1CCCC1 (max concentration tested 10000 nM) | 31 | -2.03 ± 9.5 | 7.81 | 9.07 | -4.89 | 19.2 | 8.07 | 18.7 | 4.19 ± 1.2 | 1.47 | 0 | 0 | 0 | 0 | 0.42 | 0 | 0.756 | 0 | 0.00895 ± 0.013 | 0 | 0 | 0 | 0 | 0
CC(=O)Nc1cccc(-n2c(=O)n(C3CC3)c(=O)c3c(Nc4ccc(I)cc4F)n(C)c(=O)c(C)c32)c1 [Trametinib] (max concentration tested 250 nM) | 53.5 | 76.9 ± 1.3 | 96.7 | 4.55 | 48.4 | 46.4 | 64.5 | 66.4 | 85.67 ± 0.21 | 4.27 | 10.4 ± 0.064 | 12.8 | 0 | 7.88 | 5.07 | 9.86 | 8.12 | 13.48 ± 0.13 | 4.3 ± 0.49 | 6.34 | 0 | 0.89 | 0 | 0.138
